A short description of assay [1]: Ratio fo the (IC50-R) compound relative to (IC50-S) paclitaxel sensitive HCT116 human colon cancer cell line. In kind it is functional, HCT-116.
Assay [2] in a line: Ratio relative to paclitaxel (EC0.01) was evaluated in a tubulin polymerization assay. In kind it is functional.
Assay [3] in a line: Cytotoxicity ratio was determined by IC50 to that of IC50 of paclitaxel. It counts as functional.
The next assay has as its system HCT-116. Nature of the assay: In vitro cytotoxicity against human colon cancer cell lines (HCT116). In kind it is functional, cell-based.
The test system of assay [4] is Mus musculus. Nature of the assay: In vivo anticancer activity against murine M 109 lung carcinoma after intraperitoneal administration at a 1.25 mg/kg/inj concentration. In kind it is functional.
Assay [5] deals with Mus musculus. The assay can be described thus: In vivo anticancer activity against murine M 109 lung carcinoma after intraperitoneal administration at a 32 mg/kg/inj concentration. It counts as functional.
For assay [6], the system named is Mus musculus. The assay can be described thus: In vivo anticancer activity against murine M 109 lung carcinoma after intraperitoneal administration at a 50 mg/kg/inj concentration. It counts as functional.
Assay [7] deals with Mus musculus. The assay can be described thus: In vivo anticancer activity against murine M 109 lung carcinoma after intraperitoneal administration at a 40 mg/kg/inj concentration. In kind it is functional.
Assay [8] deals with Mus musculus. Nature of the assay: In vivo anticancer activity against murine M 109 lung carcinoma after intraperitoneal administration at a 60 mg/kg/inj concentration; Range 145-218. In kind it is functional.

The source of these data is ChEMBL document CHEMBL1133195, “Structure-activity relationships study at the 3'-N position of paclitaxel. Part 2: synthesis and biological evaluation of 3'-N-thiourea- and 3'-N-thiocarbamate-bearing paclitaxel analogues” (Bioorg Med Chem Lett, 2000).

The IC50 is the concentration at which inhibition is half-maximal. Lower therefore signals greater potency. As for `CCCC/N=C(\S)N[C@@H](c1ccco1)[C@@H](O)C(=O)O[C@H]1CC2(O)[C@@H](OC(=O)c3ccccc3)[C@H]3[C@](C)(C(=O)[C@H](OC(C)=O)C(=C1C)C2(C)C)[C@@H](O)CC1OC[C@]13OC(C)=O` (stereo partly specified), the results for the Ratio in assay [1], in [2] and in assay [3] were 252, 1 and 4.6, respectively. Also, in the assay with HCT-116, the IC50 was determined as 10.5 nM.

For `CC(=O)O[C@H]1C(=O)[C@]2(C)[C@@H](O)CC3OC[C@@]3(OC(C)=O)[C@H]2[C@H](OC(=O)c2ccccc2)C2(O)C[C@H](OC(=O)[C@H](O)[C@@H](NC(=O)SC(C)(C)C)c3ccco3)C(C)=C1C2(C)C` (stereo partly specified), the T/C in the assay on Mus musculus [4] amounted to 134. Also, the Ratio in [1] came out at 2.2; in [2], 0.1; in [3], 0.3. Besides, in the assay on HCT-116, the IC50 was found to be 0.9 nM.

For the compound `CCCCSC(=O)N[C@@H](c1ccccc1)[C@@H](O)C(=O)O[C@H]1CC2(O)[C@@H](OC(=O)c3ccccc3)[C@H]3[C@](C)(C(=O)[C@H](OC(C)=O)C(=C1C)C2(C)C)[C@@H](O)CC1OC[C@]13OC(C)=O` (stereo partly specified), the results for the Ratio in assay [1], in assay [2] and in [3] were 29, 0.6 and 0.88, respectively. The compound also showed an IC50 in the assay with HCT-116 of 5.8 nM.

Consider `CC(=O)O[C@H]1C(=O)[C@]2(C)[C@@H](O)CC3OC[C@@]3(OC(C)=O)[C@H]2[C@H](OC(=O)c2ccccc2)C2(O)C[C@H](OC(=O)[C@H](O)[C@@H](NC(=O)SC(C)C)c3ccco3)C(C)=C1C2(C)C` (stereo partly specified), for which the Ratio in assay [1] came to 1.2; in assay [2], 0.2; in [3], 14.7. In the assay on HCT-116, this compound yielded an IC50 of 32.5 nM.

As to `CC(=O)O[C@H]1C(=O)[C@]2(C)[C@@H](O)CC3OC[C@@]3(OC(C)=O)[C@H]2[C@H](OC(=O)c2ccccc2)C2(O)C[C@H](OC(=O)[C@H](O)[C@@H](/N=C(\S)NC(C)(C)C)c3ccco3)C(C)=C1C2(C)C` (stereo partly specified), the Ratio in assay [1] stood at 40; in assay [2] it was 1; in assay [3], 4.9. 11.3 nM corresponded to half-maximal inhibition with HCT-116 (IC50).

Consider `CC(=O)O[C@H]1C(=O)[C@]2(C)[C@@H](O)CC3OC[C@@]3(OC(C)=O)[C@H]2[C@H](OC(=O)c2ccccc2)C2(O)C[C@H](OC(=O)[C@H](O)[C@@H](/N=C(\S)NCc3ccccc3)c3ccccc3)C(C)=C1C2(C)C` (stereo partly specified), for which the values for the Ratio in [2] and in [3] were 12 and greater than 40, respectively. Moreover, the IC50 in the assay with HCT-116 is greater than 87 nM.

Compound `CC(=O)O[C@H]1C(=O)[C@]2(C)[C@@H](O)CC3OC[C@@]3(OC(C)=O)[C@H]2[C@H](OC(=O)c2ccccc2)C2(O)C[C@H](OC(=O)[C@H](O)[C@@H](NC(=O)OC(C)(C)C)c3ccccc3)C(C)=C1C2(C)C` (stereo partly specified) gave a T/C in the assay with Mus musculus [5] of 177. The Ratio in assay [1] is 12; in assay [2], 0.66; in assay [3], 0.6. In the assay on HCT-116, this compound came in with an IC50 of 2.4 nM.

Consider `CC(=O)O[C@@]12COC1C[C@H](O)[C@@]1(C)C(=O)[C@H](O)C3=C(C)[C@@H](OC(=O)C(O)[C@@H](NC(=O)NC(C)(C)C)c4ccccc4)CC(O)([C@@H](OC(=O)c4ccccc4)[C@@H]12)C3(C)C` (stereo partly specified), for which the Ratio in assay [1] was found to be 46.8; in assay [2] it was 0.72; in [3], 1. This compound displayed an IC50 with HCT-116 of 4 nM.

In the case of `CC(=O)O[C@H]1C(=O)[C@]2(C)[C@@H](O)CC3OC[C@@]3(OC(C)=O)[C@H]2[C@H](OC(=O)c2ccccc2)C2(O)C[C@H](OC(=O)[C@H](O)[C@@H](NC(=O)SC(C)(C)C)c3ccccc3)C(C)=C1C2(C)C` (stereo partly specified), the Ratio in assay [1] is 4.7; in assay [2] it was 0.3; in assay [3] it was 0.3. Further, it took 0.9 nM to reach half-maximal inhibition with HCT-116 (IC50).

In the assay on Mus musculus [6], `CC(=O)O[C@H]1C(=O)[C@]2(C)[C@@H](O)CC3OC[C@@]3(OC(C)=O)[C@H]2[C@H](OC(=O)c2ccccc2)C2(O)C[C@H](OC(=O)[C@H](O)[C@@H](NC(=O)SCC(C)C)c3ccco3)C(C)=C1C2(C)C` (stereo partly specified) returned a T/C of 145. The Ratio was determined as 7.7 in assay [1], 0.2 in assay [2] and 0.28 in [3]. In the assay with HCT-116, this compound registered an IC50 of 0.7 nM.

For the compound `CCCCSC(=O)N[C@@H](c1ccco1)[C@@H](O)C(=O)O[C@H]1CC2(O)[C@@H](OC(=O)c3ccccc3)[C@H]3[C@](C)(C(=O)[C@H](OC(C)=O)C(=C1C)C2(C)C)[C@@H](O)CC1OC[C@]13OC(C)=O` (stereo partly specified), the T/C in the assay on Mus musculus [7] is 139. For the same compound, the results for the Ratio in assay [1], in assay [2] and in [3] were 21.3, 0.2 and 0.17, respectively. For the same compound, in the assay with HCT-116, the IC50 is 0.3 nM.

Regarding `CCCC/N=C(\S)N[C@@H](c1ccccc1)[C@@H](O)C(=O)O[C@H]1CC2(O)[C@@H](OC(=O)c3ccccc3)[C@H]3[C@](C)(C(=O)[C@H](OC(C)=O)C(=C1C)C2(C)C)[C@@H](O)CC1OC[C@]13OC(C)=O` (stereo partly specified), the results for the Ratio in [1], in assay [2] and in assay [3] were 64, 18 and 21.8, respectively. This compound also gave an IC50 with HCT-116 of 50.2 nM.

Turning to `CC(=O)O[C@H]1C(=O)[C@]2(C)[C@@H](O)CC3OC[C@@]3(OC(C)=O)[C@H]2[C@H](OC(=O)c2ccccc2)C2(O)C[C@H](OC(=O)[C@H](O)[C@@H](/N=C(\S)NC(C)(C)C)c3ccccc3)C(C)=C1C2(C)C` (stereo partly specified), the Ratio in [1] was 31; in [2], 19; in assay [3] it was roughly 50. Also, in the assay on HCT-116, 96.7 nM corresponded to half-maximal inhibition (IC50).

For the compound `CC(=O)O[C@H]1C(=O)[C@@]2(C)[C@H]([C@H](OC(=O)c3ccccc3)[C@]3(O)C[C@H](OC(=O)[C@H](O)[C@@H](NC(=O)c4ccccc4)c4ccccc4)C(C)=C1C3(C)C)[C@]1(OC(C)=O)CO[C@@H]1C[C@@H]2O` [PACLITAXEL], in the assay on Mus musculus [8], the T/C was determined as 145.
